In US12263175B2, “Optimised dosage of diaminophenothiazines in populations” (WisTa Laboratories Ltd., priority 2018, dated 2025):

Test: Treatment-emergent adverse events, three Phase 3 double-blind studies, LMTM pooled safety population
Assay type: in vivo, human
Source text: Three Phase 3, double-blind, controlled studies of LMTM have been completed (one each in subjects with mild and mild to moderate AD and one in subjects with bvFTD). Results of the AD studies have been published (Gauthier et al., 2016; Wilcock et al., 2018).
In these three studies, 1897 subjects received at least one dose of LMTM (Safety Population [Five additional subjects with AD, participating at one site in Study TRx-237-005, received a dose of study drug but were excluded from all analyses due to GCP violations], 1679 subjects with AD and 218 subjects with bvFTD). Of these, 860 subjects received the control (LMTM 8 mg/day, 750 with AD and 110 with bvFTD) and 1037 subjects received at least one dose of LMTM in the higher doses of 150 to 250 mg/day (929 with AD and 108 with bvFTD).
The incidence of the most common TEAEs are summarised by dose in the following Table EX1. This includes TEAEs that occurred at an incidence of ≥2.0% either in subjects randomised to LMTM 8 mg/day or higher doses (150 to 250 mg/day). The subset of TEAEs that were severe in intensity are also included.
The TEAEs are further analysed by using groupings of related MedDRA (Medical Dictionary for Regulatory Activities) preferred terms to better estimate the incidence of potentially treatment related adverse events. The incidence of all groupings for subjects categorised by dose (8 mg/day versus higher doses of 150 to 250 mg/day) is shown in the following Table EX2: […]

[1] = LMTM 8 mg/day (N = 860), Severe Intensity
[2] = subjects treated with LMTM 8 mg/day

For `CN(C)c1ccc2c(c1)Sc1cc(N(C)C)ccc1N2` [LMTM, leuco-methylthioninium bis(hydromethanesulfonate)], the “Grouped TEAE incidence: Behavioral Symptoms” value (LMTM 8 mg/day (N = 860)) was 114 (13.3%) n (%), the “Grouped TEAE incidence: Falls and Related Terms” value (LMTM 8 mg/day (N = 860)) was 188 (21.9%) n (%) and the “Grouped TEAE incidence: Hepatic Function Impairment” value (LMTM 8 mg/day (N = 860)) was 13 (1.5%) n (%). The “Grouped TEAE incidence: Hypersensitivity” value (LMTM 8 mg/day (N = 860)) was 42 (4.9%) n (%), the “Grouped TEAE incidence: Ischaemic Events, Inclusive of Myocardial Infarction” value (LMTM 8 mg/day (N = 860)) was 20 (2.3%) n (%) and the “Grouped TEAE incidence: Psychotic Symptoms” value (LMTM 8 mg/day (N = 860)) was 28 (3.3%) n (%). For the same compound, the “Grouped TEAE incidence: Renal Function Impairment” value (LMTM 8 mg/day (N = 860)) was 29 (3.4%) n (%), the “Grouped TEAE incidence: Renal and Urinary Disorders (Including Infections)” value (LMTM 8 mg/day (N = 860)) was 135 (15.7%) n (%) and the “Grouped TEAE incidence: Sleep Disorders” value (LMTM 8 mg/day (N = 860)) was 41 (4.8%) n (%). For the same compound, the “Grouped TEAE incidence: Targeted Gastrointestinal Events” value (LMTM 8 mg/day (N = 860)) was 183 (21.3%) n (%), the “No. (%) of Subjects Reporting at Least One TEAE” value (LMTM 8 mg/day (N = 860), All) was 720 (83.7%) n (%) and the “TEAE incidence: Abdominal pain” value (LMTM 8 mg/day (N = 860), All) was 16 (1.9%) n (%). The “TEAE incidence: Abdominal pain upper” value (LMTM 8 mg/day (N = 860), All) was 10 (1.2%) n (%), the “TEAE incidence: Agitation” value (LMTM 8 mg/day (N = 860), All) was 46 (5.3%) n (%) and the “TEAE incidence: Anaemia” value (LMTM 8 mg/day (N = 860), All) was 19 (2.2%) n (%). For the same compound, the “TEAE incidence: Anxiety” value (LMTM 8 mg/day (N = 860), All) was 52 (6.0%) n (%), the “TEAE incidence: Arthralgia” value (LMTM 8 mg/day (N = 860), All) was 28 (3.3%) n (%) and the “TEAE incidence: Atrial fibrillation” value (LMTM 8 mg/day (N = 860), All) was 17 (2.0%) n (%). The “TEAE incidence: Back pain” value (LMTM 8 mg/day (N = 860), All) was 31 (3.6%) n (%), the “TEAE incidence: Blood creatine phosphokinase increased” value (LMTM 8 mg/day (N = 860), All) was 18 (2.1%) n (%) and the “TEAE incidence: Blood folate decreased” value (LMTM 8 mg/day (N = 860), All) was 45 (5.2%) n (%). For the same compound, the “TEAE incidence: Bronchitis” value (LMTM 8 mg/day (N = 860), All) was 27 (3.1%) n (%), the “TEAE incidence: Cerebral microhaemorrhage” value (LMTM 8 mg/day (N = 860), All) was 24 (2.8%) n (%) and the “TEAE incidence: Confusional state” value (LMTM 8 mg/day (N = 860), All) was 22 (2.6%) n (%). For the same compound, the “TEAE incidence: Constipation” value (LMTM 8 mg/day (N = 860), All) was 23 (2.7%) n (%), the “TEAE incidence: Contusion” value (LMTM 8 mg/day (N = 860), All) was 24 (2.8%) n (%) and the “TEAE incidence: Cough” value (LMTM 8 mg/day (N = 860), All) was 37 (4.3%) n (%). For the same compound, the “TEAE incidence: Decreased appetite” value (LMTM 8 mg/day (N = 860), All) was 13 (1.5%) n (%), the “TEAE incidence: Dehydration” value (LMTM 8 mg/day (N = 860), All) was 17 (2.0%) n (%) and the “TEAE incidence: Depression” value (LMTM 8 mg/day (N = 860), All) was 41 (4.8%) n (%). For the same compound, the “TEAE incidence: Diarrhoea” value (LMTM 8 mg/day (N = 860), All) was 109 (12.7%) n (%), the “TEAE incidence: Dizziness” value (LMTM 8 mg/day (N = 860), All) was 49 (5.7%) n (%) and the “TEAE incidence: Dysuria” value (LMTM 8 mg/day (N = 860), All) was 6 (0.7%) n (%). The “TEAE incidence: Fall” value (LMTM 8 mg/day (N = 860), All) was 90 (10.5%) n (%), the “TEAE incidence: Fatigue” value (LMTM 8 mg/day (N = 860), All) was 26 (3.0%) n (%) and the “TEAE incidence: Folate deficiency” value (LMTM 8 mg/day (N = 860), All) was 17 (2.0%) n (%). For the same compound, the “TEAE incidence: Haemoglobin decreased” value (LMTM 8 mg/day (N = 860), All) was 6 (0.7%) n (%), the “TEAE incidence: Hallucination” value (LMTM 8 mg/day (N = 860), All) was 13 (1.5%) n (%) and the “TEAE incidence: Headache” value (LMTM 8 mg/day (N = 860), All) was 55 (6.4%) n (%). For the same compound, the “TEAE incidence: Hypertension” value (LMTM 8 mg/day (N = 860), All) was 20 (2.3%) n (%), the “TEAE incidence: Insomnia” value (LMTM 8 mg/day (N = 860), All) was 29 (3.4%) n (%) and the “TEAE incidence: Laceration” value (LMTM 8 mg/day (N = 860), All) was 17 (2.0%) n (%). For the same compound, the “TEAE incidence: Micturition urgency” value (LMTM 8 mg/day (N = 860), All) was 11 (1.3%) n (%), the “TEAE incidence: Nasopharyngitis” value (LMTM 8 mg/day (N = 860), All) was 40 (4.7%) n (%) and the “TEAE incidence: Nausea” value (LMTM 8 mg/day (N = 860), All) was 39 (4.5%) n (%). For the same compound, the “TEAE incidence: Oedema peripheral” value (LMTM 8 mg/day (N = 860), All) was 19 (2.2%) n (%), the “TEAE incidence: Pain in extremity” value (LMTM 8 mg/day (N = 860), All) was 19 (2.2%) n (%) and the “TEAE incidence: Pollakiuria” value (LMTM 8 mg/day (N = 860), All) was 19 (2.2%) n (%). The “TEAE incidence: Rash” value (LMTM 8 mg/day (N = 860), All) was 21 (2.4%) n (%), the “TEAE incidence: Suicidal ideation” value (LMTM 8 mg/day (N = 860), All) was 27 (3.1%) n (%) and the “TEAE incidence: Syncope” value (LMTM 8 mg/day (N = 860), All) was 26 (3.0%) n (%). The “TEAE incidence: Tremor” value (LMTM 8 mg/day (N = 860), All) was 20 (2.3%) n (%), the “TEAE incidence: Upper respiratory tract infection” value (LMTM 8 mg/day (N = 860), All) was 35 (4.1%) n (%) and the “TEAE incidence: Urinary incontinence” value (LMTM 8 mg/day (N = 860), All) was 34 (4.0%) n (%). For the same compound, the “TEAE incidence: Urinary tract infection” value (LMTM 8 mg/day (N = 860), All) was 76 (8.8%) n (%), the “TEAE incidence: Vitamin B12 decreased” value (LMTM 8 mg/day (N = 860), All) was 23 (2.7%) n (%) and the “TEAE incidence: Vomiting” value (LMTM 8 mg/day (N = 860), All) was 20 (2.3%) n (%). The “TEAE incidence: Weight decreased” value (LMTM 8 mg/day (N = 860), All) was 18 (2.1%) n (%), the “No. (%) of Subjects Reporting at Least One TEAE” value [1] was 86 (10.0%) n (%) and the “TEAE incidence: Abdominal pain” value [1] was 1 (0.1%) n (%). For the same compound, the “TEAE incidence: Abdominal pain upper” value [1] was 1 (0.1%) n (%), the “TEAE incidence: Agitation” value [1] was 1 (0.1%) n (%) and the “TEAE incidence: Anaemia” value [1] was 1 (0.1%) n (%). The “TEAE incidence: Anxiety” value [1] was 0 n (%), the “TEAE incidence: Arthralgia” value [1] was 0 n (%) and the “TEAE incidence: Atrial fibrillation” value [1] was 3 (0.3%) n (%). The “TEAE incidence: Back pain” value [1] was 1 (0.1%) n (%), the “TEAE incidence: Blood creatine phosphokinase increased” value [1] was 0 n (%) and the “TEAE incidence: Blood folate decreased” value [1] was 0 n (%). For the same compound, the “TEAE incidence: Bronchitis” value [1] was 0 n (%), the “TEAE incidence: Cerebral microhaemorrhage” value [1] was 0 n (%) and the “TEAE incidence: Confusional state” value [1] was 2 (0.2%) n (%). The “TEAE incidence: Constipation” value [1] was 2 (0.2%) n (%), the “TEAE incidence: Contusion” value [1] was 0 n (%) and the “TEAE incidence: Cough” value [1] was 0 n (%). The “TEAE incidence: Decreased appetite” value [1] was 0 n (%), the “TEAE incidence: Dehydration” value [1] was 4 (0.5%) n (%) and the “TEAE incidence: Depression” value [1] was 0 n (%). The “TEAE incidence: Diarrhoea” value [1] was 5 (0.6%) n (%), the “TEAE incidence: Dizziness” value [1] was 3 (0.3%) n (%) and the “TEAE incidence: Dysuria” value [1] was 0 n (%). The “TEAE incidence: Fall” value [1] was 4 (0.5%) n (%), the “TEAE incidence: Fatigue” value [1] was 0 n (%) and the “TEAE incidence: Folate deficiency” value [1] was 0 n (%). The “TEAE incidence: Haemoglobin decreased” value [1] was 0 n (%), the “TEAE incidence: Hallucination” value [1] was 0 n (%) and the “TEAE incidence: Headache” value [1] was 1 (0.1%) n (%). The “TEAE incidence: Hypertension” value [1] was 0 n (%), the “TEAE incidence: Insomnia” value [1] was 0 n (%) and the “TEAE incidence: Laceration” value [1] was 0 n (%). The “TEAE incidence: Micturition urgency” value [1] was 0 n (%), the “TEAE incidence: Nasopharyngitis” value [1] was 0 n (%) and the “TEAE incidence: Nausea” value [1] was 1 (0.1%) n (%). The “TEAE incidence: Oedema peripheral” value [1] was 0 n (%), the “TEAE incidence: Pain in extremity” value [1] was 1 (0.1%) n (%) and the “TEAE incidence: Pollakiuria” value [1] was 0 n (%). The “TEAE incidence: Rash” value [1] was 0 n (%), the “TEAE incidence: Suicidal ideation” value [1] was 2 (0.2%) n (%) and the “TEAE incidence: Syncope” value [1] was 1 (0.1%) n (%). The “TEAE incidence: Tremor” value [1] was 0 n (%), the “TEAE incidence: Upper respiratory tract infection” value [1] was 0 n (%) and the “TEAE incidence: Urinary incontinence” value [1] was 0 n (%). The “TEAE incidence: Urinary tract infection” value [1] was 1 (0.1%) n (%), the “TEAE incidence: Vitamin B12 decreased” value [1] was 0 n (%) and the “TEAE incidence: Vomiting” value [1] was 0 n (%). For the same compound, the “TEAE incidence: Weight decreased” value [1] was 0 n (%), the “Grouped TEAE incidence: Falls and Related Terms” value [2] was 22% and the “Grouped TEAE incidence: GI events” value [2] was 21%. The “Grouped TEAE incidence: Renal and Urinary Disorders (Including Infections)” value [2] was 16%, the “Grouped TEAE incidence: behavioural symptoms” value [2] was 13% and the “Grouped TEAE incidence: terms indicative of anaemia” value [2] was 13%.
